Results taken from patent US20230398102A1 (Bausch Health Ireland Limited, priority 2020, published 2023).

Experiments:
Format in all cases: physicochemical
[1] = Excipient compatibility: rifaximin solutions stored at various temperatures, chemical purity by HPLC; conditions: rifaximin in named solvent
[2] = Compatibility of individual excipients with hard gelatin capsule shells; conditions: Hard Gel Capsules
Procedure: (§1) The physical compatibility of individual excipients with gelatin shell matrix was investigated. For hard gelatin capsules, solvent was filled into hard capsules and placed in scintillation vials. For soft gelatin capsules, each capsule was dipped into the excipient and then placed in scintillation vials. The vials were then subjected to various temperature conditions for up to 4 weeks. Capsules were then evaluated for physical changes (softening or hardening of capsule shell).
(§2) Hard gel capsules were purchased from VWR (catalogue number 70102) with a volume of 0.68 mL, diameter of 6.63 mm, a length of 19.0 mm and size 1. Soft gel capsules were Advil liquid-gels, 200 mg strength, 80 counts.

[3] = Compatibility of individual excipients with soft gelatin capsule shells; conditions: Soft Gel Capsules
Procedure: as §1, §2

Compound | Rifaximin % Label Claim (LC) ([1]; T0) | Rifaximin % Label Claim (LC) ([1]; T 2 weeks, 25° C.) | Rifaximin % Label Claim (LC) ([1]; T 2 weeks, 40° C.) | Rifaximin % Label Claim (LC) ([1]; T 2 weeks, 50° C.) | Rifaximin % Label Claim (LC) ([1]; T 4 weeks, 25° C.) | Rifaximin % Label Claim (LC) ([1]; T 4 weeks, 40° C.) | Rifaximin % Label Claim (LC) ([1]; T 4 weeks, 50° C.) | Physical change (Yes or No) ([2]; T 2 weeks, 25° C.) | Physical change (Yes or No) ([2]; T 2 weeks, 40° C.) | Physical change (Yes or No) ([2]; T 4 weeks, 25° C.) | Physical change (Yes or No) ([2]; T 4 weeks, 40° C.) | Physical change (Yes or No) ([2]; T 2 weeks, 50° C.) | Physical change (Yes or No) ([2]; T 4 weeks, 50° C.) | Physical change (Yes or No) ([3]; T 2 weeks, 25° C.) | Physical change (Yes or No) ([3]; T 2 weeks, 40° C.) | Physical change (Yes or No) ([3]; T 2 weeks, 50° C.) | Physical change (Yes or No) ([3]; T 4 weeks, 25° C.) | Physical change (Yes or No) ([3]; T 4 weeks, 40° C.) | Physical change (Yes or No) ([3]; T 4 weeks, 50° C.)
OCc1ccccc1 [Benzyl alcohol] | 99.3 % Label Claim (LC) | 99.8 % Label Claim (LC) | 96.3 % Label Claim (LC) | 96.9 % Label Claim (LC) | 98.2 % Label Claim (LC) | 94.0 % Label Claim (LC) | 93.0 % Label Claim (LC) | Yes | Yes | Yes | Yes | – | – | – | – | – | – | – | –
CCOC(=O)CCCCCCCCC(=O)OCC [Diethyl sebacate] | 102.7 % Label Claim (LC) | 102.1 % Label Claim (LC) | 101.7 % Label Claim (LC) | 101.7 % Label Claim (LC) | 101.1 % Label Claim (LC) | 98.8 % Label Claim (LC) | 99.8 % Label Claim (LC) | No | No | No | No | – | – | – | – | – | – | – | –
CCOCCOCCO [Diethylene glycol monoethyl ether] | – | – | – | – | – | – | – | No | No | No | No | No | No | – | – | – | – | – | –
CC(C)OC(=O)CCCCC(=O)OC(C)C [Diisopropyl adipate] | 97.6 % Label Claim (LC) | 95.3 % Label Claim (LC) | 71.3 % Label Claim (LC) | 50.3 % Label Claim (LC) | 95.1 % Label Claim (LC) | 64.8 % Label Claim (LC) | 30.4 % Label Claim (LC) | – | – | – | – | – | – | – | – | – | – | – | –
CCCCCCCC/C=C\CCCCCCCC(=O)OCC(O)CO (stereo not shown) [Glyceryl monooleate (Type 40), Glyceryl monooleate] | 92.7 % Label Claim (LC) | 96.4 % Label Claim (LC) | 58.3 % Label Claim (LC) | 48.9 % Label Claim (LC) | 95.0 % Label Claim (LC) | 59.0 % Label Claim (LC) | 41.7 % Label Claim (LC) | No | No | No | No | No | No | No | Yes | Yes | No | Yes | Yes

Continued, in another order:

Rifaximin % Label Claim (LC) ([1]; T0) | Rifaximin % Label Claim (LC) ([1]; T 2 weeks, 25° C.) | Rifaximin % Label Claim (LC) ([1]; T 2 weeks, 40° C.) | Rifaximin % Label Claim (LC) ([1]; T 2 weeks, 50° C.) | Rifaximin % Label Claim (LC) ([1]; T 4 weeks, 25° C.) | Rifaximin % Label Claim (LC) ([1]; T 4 weeks, 40° C.) | Rifaximin % Label Claim (LC) ([1]; T 4 weeks, 50° C.) | Physical change (Yes or No) ([2]; T 2 weeks, 25° C.) | Physical change (Yes or No) ([2]; T 2 weeks, 40° C.) | Physical change (Yes or No) ([2]; T 4 weeks, 25° C.) | Physical change (Yes or No) ([2]; T 4 weeks, 40° C.) | Physical change (Yes or No) ([2]; T 2 weeks, 50° C.) | Physical change (Yes or No) ([2]; T 4 weeks, 50° C.) | Compound | Physical change (Yes or No) ([3]; T 2 weeks, 25° C.) | Physical change (Yes or No) ([3]; T 2 weeks, 40° C.) | Physical change (Yes or No) ([3]; T 2 weeks, 50° C.) | Physical change (Yes or No) ([3]; T 4 weeks, 25° C.) | Physical change (Yes or No) ([3]; T 4 weeks, 40° C.) | Physical change (Yes or No) ([3]; T 4 weeks, 50° C.)
102.7 % Label Claim (LC) | 98.7 % Label Claim (LC) | 100.0 % Label Claim (LC) | 97.4 % Label Claim (LC) | 100.6 % Label Claim (LC) | 100.0 % Label Claim (LC) | 92.9 % Label Claim (LC) | No | No | No | No | No | No | CCCCC/C=C\C/C=C\CCCCCCCC(=O)OCC(O)CO (stereo not shown) [Glyceryl monolinoleate] | No | No | No | No | No | No
98.7 % Label Claim (LC) | 96.3 % Label Claim (LC) | 97.1 % Label Claim (LC) | 95.2 % Label Claim (LC) | 96.9 % Label Claim (LC) | 95.0 % Label Claim (LC) | 91.8 % Label Claim (LC) | No | No | No | No | – | – | CCCCCCCC/C=C\CCCCCCCCO [Oleyl alcohol] | – | – | – | – | – | –
97.9 % Label Claim (LC) | 96.9 % Label Claim (LC) | 97.0 % Label Claim (LC) | 95.7 % Label Claim (LC) | 96.2 % Label Claim (LC) | 95.6 % Label Claim (LC) | 98.6 % Label Claim (LC) | – | – | – | – | – | – | CC(O)CO (stereo not shown) [Propylene glycol] | – | – | – | – | – | –
97.5 % Label Claim (LC) | 98.3 % Label Claim (LC) | 96.7 % Label Claim (LC) | 95.6 % Label Claim (LC) | 97.0 % Label Claim (LC) | 95.0 % Label Claim (LC) | 92.5 % Label Claim (LC) | Yes | Yes | Yes | Yes | – | – | OCCOCCOCCO [Triethylene glycol] | – | – | – | – | – | –
97.3 % Label Claim (LC) | 96.1 % Label Claim (LC) | 89.3 % Label Claim (LC) | 81.5 % Label Claim (LC) | 95.4 % Label Claim (LC) | 82.7 % Label Claim (LC) | 74.2 % Label Claim (LC) | – | – | – | – | – | – | CCOCCOCCO [diethylene glycol monoethyl ether] | – | – | – | – | – | –
